Results on 7 compounds are retold here after patent publication US10858368B2, “Modulators of the 5-hydroxytryptamine receptor 7 and their method of use” (Temple University—Of The Commonwealth System of Higher …, priority 2016, dated 2020).

Structures are written as SMILES.

Chain of 5HT7 receptors (P34969 whole entry): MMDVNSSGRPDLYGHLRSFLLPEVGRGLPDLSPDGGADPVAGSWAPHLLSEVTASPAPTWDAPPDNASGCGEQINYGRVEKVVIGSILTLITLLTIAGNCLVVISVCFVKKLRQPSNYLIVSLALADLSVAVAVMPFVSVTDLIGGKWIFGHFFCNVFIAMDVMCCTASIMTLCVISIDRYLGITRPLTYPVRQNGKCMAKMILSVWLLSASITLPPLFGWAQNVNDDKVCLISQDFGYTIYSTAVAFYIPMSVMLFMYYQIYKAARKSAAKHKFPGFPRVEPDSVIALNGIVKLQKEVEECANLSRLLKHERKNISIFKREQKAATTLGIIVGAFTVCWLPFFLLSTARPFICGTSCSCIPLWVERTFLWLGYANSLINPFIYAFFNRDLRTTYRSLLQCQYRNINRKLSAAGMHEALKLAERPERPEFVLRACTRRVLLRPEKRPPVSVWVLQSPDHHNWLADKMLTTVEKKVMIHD

This assay has as its target 5HT7 receptors (Homo sapiens (Human), UniProt P34969). Nature of the assay: Radiolabel Binding Studies for Serotonin 5-HT7 Receptors, Method 2 ([3H]-5HT competition; Ki, and percent inhibition at 10 μM). As to conditions: single concentration 10 uM; inhibition of radioligand binding to 5HT7 receptors; read-out: 5-HT7 % inhib @ 10 uM. Here is the method: A solution of the compound of the disclosure to be tested is prepared as a 1-mg/ml stock in Assay Buffer or DMSO according to its solubility. A similar stock of the reference compound chlorpromazine is also prepared as a positive control. Eleven dilutions (5× assay concentration) of the compound of the disclosure and chlorpromazine are prepared in the Assay Buffer by serial dilution to yield final corresponding assay concentrations ranging from 10 pM to 10 μM.
A stock concentration of 5 nM [^3H]-5-Hydroxytryptamine ([^3H]-5HT) is prepared in 50 mM Tris-HCl, 10 mM MgCl2, 1 mM EDTA, pH 7.4 (Assay Buffer). Aliquots (50 μl) of radioligand are dispensed into the wells of a 96-well plate containing 100 al of Assay Buffer. Duplicate 50-μl aliquots of the compound of the disclosure test and chlorpromazine positive control reference compound serial dilutions are added.
Membrane fractions of cells expressing recombinant 5HT7 receptors (50 μL) are dispensed into each well. The membranes are prepared from stably transfected cell lines expressing 5HT7 receptors cultured on 10-cm plates by harvesting PBS-rinsed monolayers, resuspending and lysing in chilled, hypotonic 50 mM Tris-HCl, pH 7.4, centrifuging at 20,000×g, decanting the supernatant and storing at −80° C.; the membrane preparations are resuspended in 3 ml of chilled Assay Buffer and homogenized by several passages through a 26 gauge needle before using in the assay.
The 250-μl reactions are incubated at room temperature for 1.5 hours, then harvested by rapid filtration onto 0.3% polyethyleneimine-treated, 96-well filter mats using a 96-well Filtermate harvester. Four rapid 500-μl washes are performed with chilled Assay Buffer to reduce non-specific binding. The filter mats are dried, then scintillant is added to the filters and the radioactivity retained on the filters is counted in a Microbeta scintillation counter.
Raw data (dpm) representing total radioligand binding (i.e., specific+non-specific binding) are plotted as a function of the logarithm of the molar concentration of the competitor (i.e., test or reference compound). Non-linear regression of the normalized (i.e., percent radioligand binding compared to that observed in the absence of test or reference compound) raw data is performed in Prism 4.0 (GraphPad Software) using the built-in three parameter logistic model describing ligand competition binding to radioligand-labeled sites: y=bottom+[(top−bottom)/(1+10×−log IC50)] where bottom equals the residual radioligand binding measured in the presence of 10 μM reference compound (i.e., non-specific binding) and top equals the total radioligand binding observed in the absence of competitor. The log IC50 (i.e., the log of the ligand concentration that reduces radioligand binding by 50%) is thus estimated from the data and used to obtain the Ki by applying the Cheng-Prusoff approximation: Ki=IC50/(1+[ligand]/KD) where [ligand] equals the assay radioligand concentration and KD equals the affinity constant of the radioligand for the target receptor.
Compounds of the disclosure are also screened at a single concentration of 10 μM using the same method described for the Radiolabel Binding Studies for Serotonin 5HT7 receptors to determine the percent inhibition of [^3H]-5HT binding.
Regarding `Cc1ccc(N2CCN(CCC3CC4(CCN(S(C)(=O)=O)CC4)C(=O)O3)CC2)cc1` (stereo not shown) [Entry 6], the inhibition at 10 µM worked out at 90.5%.

For the compound `Cc1ccc(N2CCN(CCC3CC4(CCN(Cc5ccccc5)CC4)C(=O)O3)CC2)cc1` (stereo not shown) [Entry 1], the inhibition at 10 µM came to 96.5%.

As to `Cc1ccc(N2CCN(CCC3CC4(CCNCC4)C(=O)O3)CC2)cc1` (stereo not shown) [Entry 2], the inhibition at 10 µM was 88.8%.

Consider `CC(=O)N1CCC2(CC1)CC(CCN1CCN(c3ccc(C)cc3)CC1)OC2=O` (stereo not shown) [Entry 4], for which the inhibition at 10 µM was 88.5%.

Turning to `COC(=O)N1CCC2(CC1)CC(CCN1CCN(c3ccc(C)cc3)CC1)OC2=O` (stereo not shown) [Entry 3], the inhibition at 10 µM was 90%.

`Cc1nc2cccc(N3CCN(CCC4CC5(CCN(S(C)(=O)=O)CC5)C(=O)O4)CC3)c2[nH]1` (stereo not shown) [Entry 8]: the inhibition at 10 µM was found to be 100%.

On to `CNC(=O)N1CCC2(CC1)CC(CCN1CCN(c3ccc(C)cc3)CC1)OC2=O` (stereo not shown) [Entry 5], for which the inhibition at 10 µM was 91.6%.
